This is an account of results in patent US20100311714A1, “1H-IMIDAZO[4,5-c]QUINOLINONE COMPOUNDS” (priority 2009, published 2010).

Structures are written as SMILES.

The target of the experiment is T1, PI3K gamma (Homo sapiens, UniProt P48736).
T1 construct: His tag (C); made in house; host or cells: construct from Roger Williams lab (pVL1393); baculovirus BV950; Tn5 (Trichoplusia ni) or TiniPro insect cells
Put plainly: PI3K gamma kinase assay (Kinase-Glo luminescence). It is filed as biochemical. As to conditions: read-out: PI3Kgamma/IC50. As to the method:
In a more preferred assay, the kinase reaction is performed in a final volume of 10 μL per well of a low volume non binding CORNING, 384 well black plate (Cat. No. #3676). The final concentrations of ATP and phosphatidyl inositol (PI) in the assay are 1 μM and 10 μg/mL respectively. The reaction is started by the addition of ATP.
The components of the assay are added per well as follows:
50 nL test compounds in 90% DMSO per well, in columns 1-20, 8 concentrations (⅓ and 1/3.33 serial dilution step) in single. • Low control: […] of 90% DMSO in half the wells of columns 23-24 (0.45% in final). • High control: 50 nL of reference compound (e.g. compound of Example 7 in WO 2006/122806) in the other half of columns 23-24 (2.5 μM in final). • Standard: 50 nL of reference compound as just mentioned diluted as the test compounds in columns 21-22 • 20 mL ‘buffer’ are prepared per assay: • 200 μL of 1M TRIS HCl pH7.5 (10 mM in final) • 60 μL of 1M MgCl2 (3 mM in final) • 500 μL of 2M NaCl (50 mM in final) • 100 μL of 10% CHAPS (0.05% in final) • 200 μL of 100 mM DTT (1 mM in final) • 18.94 mL of nanopure water • 10 mL ‘PI’ are prepared per assay: • 200 μL of 1 mg/ml L-alpha-Phosphatidylinositol (Liver Bovine, Avanti Polar Lipids Cat. No. 840042C MW=909.12) prepared in 3% OctylGlucoside (10 μg/ml in final) • 9.8 mL of ‘buffer’ • 10 mL ‘ATP’ are prepared per assay: • 6.7 μL of 3 mM stock of ATP giving a final concentration of 1 μM per well • 10 mL of ‘buffer’ • 2.5 mL of each PI3K construct are prepared per assay in ‘PI’ with the following final concentration: • 10 nM PI3K alfa EMV B1075 • 25 nM beta EMV BV949 • 10 nM delta EMV BV1060 • 150 nM gamma EMV BV950 • 5 μL of ‘PI/PI3K’ are added per well. • 5 μl ‘ATP’ are added per well to start the reaction. • The plates are then incubated at room temperature for 60 minutes (alfa, beta, delta) or 120 minutes (gamma). • The reaction is terminated by the addition of 10 μL Kinase-Glo (Promega Cat. No. #6714). • The assay plates are read after 10 minutes in Synergy 2 reader (BioTek, Vermont USA) with an integration time of 100 milliseconds and sensitivity set to 191. • Output: The High control is around 60′000 counts and the Low control is 30′000 or lower • This luminescence assay gives a useful Z′ ratio between 0.4 and 0.7
PI3K gamma is purified in two chromatographic steps: immobilized metal affinity chromatography (IMAC) on a Ni Sepharose resin (GE Healthcare) and gel filtration (GFC) utilizing a Superdex 200 26/60 column (GE Healthcare). All buffers are chilled to 4° C. and lysis is performed chilled on ice. Column fractionation is performed rapidly at room temperature. Typically frozen insect cells are lysed in a hypertonic lysis buffer and applied to a prepared IMAC column. The resin is washed with 3-5 column volumes of lysis buffer, followed by 3-5 column volumes wash buffer containing 45 mM imidazole, and the target protein is then eluted with a buffer containing 250 mM imidazole. Fractions are analyzed by Coomassie stained SDS-PAGE gels, and fractions containing target protein are pooled and applied to a prepared GFC column. Fractions from the GFC column are analyzed by Coomassie stained SDS-PAGE gels, and fractions containing target protein are pooled. The final pool is dialyzed into a storage buffer containing 50% glycerol and stored at −20° C. The final pool is assayed for activity in the phosphoinostitol kinase assay.
IC50 is determined by a four parameter curve fitting routine that comes along with “excel fit”. A 4 Parameter logistic equation is used to calculate IC50 values (IDBS XLfit) of the percentage inhibition of each compound at 8 concentrations (usually 10, 3.0, 1.0, 0.3, 0.1, 0.030, 0.010 and 0.003 μM). Alternatively, IC50 values are calculated using idbsXLfit model 204, which is a 4 parameter logistic model.

T1 sequence (P48736 144-1102 limits assumed): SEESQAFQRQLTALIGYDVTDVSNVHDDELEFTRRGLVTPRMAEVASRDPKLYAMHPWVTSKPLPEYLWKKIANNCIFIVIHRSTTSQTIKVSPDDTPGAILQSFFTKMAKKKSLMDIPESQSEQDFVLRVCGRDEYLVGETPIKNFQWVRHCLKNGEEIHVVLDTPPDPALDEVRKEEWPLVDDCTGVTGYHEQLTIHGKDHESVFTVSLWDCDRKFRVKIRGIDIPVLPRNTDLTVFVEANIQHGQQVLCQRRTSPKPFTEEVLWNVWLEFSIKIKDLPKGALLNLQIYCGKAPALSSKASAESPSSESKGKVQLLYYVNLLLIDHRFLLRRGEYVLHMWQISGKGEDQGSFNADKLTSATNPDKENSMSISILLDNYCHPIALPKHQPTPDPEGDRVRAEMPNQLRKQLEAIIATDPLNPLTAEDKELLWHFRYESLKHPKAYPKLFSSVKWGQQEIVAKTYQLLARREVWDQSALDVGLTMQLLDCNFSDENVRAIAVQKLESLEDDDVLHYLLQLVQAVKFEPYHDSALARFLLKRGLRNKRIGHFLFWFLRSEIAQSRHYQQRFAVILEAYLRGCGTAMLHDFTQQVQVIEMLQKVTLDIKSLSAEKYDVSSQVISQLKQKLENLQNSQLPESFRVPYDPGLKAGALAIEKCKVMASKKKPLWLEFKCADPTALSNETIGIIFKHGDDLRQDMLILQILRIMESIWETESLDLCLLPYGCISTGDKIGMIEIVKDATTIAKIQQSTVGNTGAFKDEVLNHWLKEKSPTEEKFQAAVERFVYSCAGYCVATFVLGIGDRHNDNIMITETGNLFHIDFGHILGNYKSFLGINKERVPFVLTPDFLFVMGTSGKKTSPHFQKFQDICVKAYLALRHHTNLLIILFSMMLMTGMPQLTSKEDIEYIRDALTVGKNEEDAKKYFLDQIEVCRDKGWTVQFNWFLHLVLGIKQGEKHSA

With `COc1ccc(-c2ccc3ncc4c(c3c2)n(-c2cccnc2OC)c(=O)n4C)cn1` [Example 1.1, 1-(2-Methoxy-pyridin-3-yl)-8-(6-methoxy-pyridin-3-yl)-3-methyl-1,3-dihydro-imidazo[4,5-c]quinolin-2-one], the IC50 turned out to be 237 nM.
On to `COc1ncccc1-n1c(=O)n(C)c2cnc3ccc(-c4cnc(N)c(C(F)(F)F)c4)cc3c21` [Example 1.3, 8-(6-Amino-5-trifluoromethyl-pyridin-3-yl)-1-(2-methoxy-pyridin-3-yl)-3-methyl-1,3-dihydro-imidazo[4,5-c]quinolin-2-one], for which the IC50 came to 131 nM.
Regarding `CNc1ccc(-c2ccc3ncc4c(c3c2)n(-c2cccnc2OC)c(=O)n4C)cn1` [Example 1.4, 1-(2-Methoxy-pyridin-3-yl)-3-methyl-8-(6-methylamino-pyridin-3-yl)-1,3-dihydro-imidazo[4,5-c]quinolin-2-one], the IC50 was found to be 227 nM.
For `CCOc1ccc(-c2ccc3ncc4c(c3c2)n(-c2cccnc2OC)c(=O)n4C)cn1` [Example 1.5, 8-(6-Ethoxy-pyridin-3-yl)-1-(2-methoxy-pyridin-3-yl)-3-methyl-1,3-dihydro-imidazo[4,5-c]quinolin-2-one] the value was 211 nM.
`CCOc1ccc(-c2ccc3ncc4c(c3c2)n(-c2cccnc2C)c(=O)n4C)cn1` [Example 2.1, 8-(6-Ethoxy-pyridin-3-yl)-3-methyl-1-(2-methyl-pyridin-3-yl)-1,3-dihydro-imidazo[4,5-c]quinolin-2-one]: the IC50 was found to be 587 nM.
With `CNc1ncc(-c2ccc3ncc4c(c3c2)n(-c2cccnc2C)c(=O)n4C)cn1` [Example 2.2, 3-Methyl-8-(2-methylamino-pyrimidin-5-yl)-1-(2-methyl-pyridin-3-yl)-1,3-dihydro-imidazo[4,5-c]quinolin-2-one], the IC50 was 331 nM.
The value for `Cc1cccnc1-n1c(=O)n(C)c2cnc3ccc(-c4cnc5ccccc5c4)cc3c21` [Example 3.8, 3-Methyl-1-(3-methyl-pyridin-2-yl)-8-quinolin-3-yl-1,3-dihydro-imidazo[4,5-c]quinolin-2-one] was 404 nM; that for `COc1ccc(-c2ccc3ncc4c(c3c2)n(-c2ncccc2C)c(=O)n4C)cn1` [Example 3.13, 8-(6-Methoxy-pyridin-3-yl)-3-methyl-1-(3-methyl-pyridin-2-yl)-1,3-dihydro-imidazo[4,5-c]quinolin-2-one] was 517 nM; that for `COc1ccc(-c2ccc3ncc4c(c3c2)n(-c2cccnc2)c(=O)n4C)cc1OC` [Example 5.2, 8-(3,4-Dimethoxy-phenyl)-3-methyl-1-pyridin-3-yl-1,3-dihydro-imidazo[4,5-c]quinolin-2-one] was 365 nM.
Take `COc1ccc(-c2ccc3ncc4c(c3c2)n(-c2cccnc2)c(=O)n4C)cn1` [Example 5.4, 8-(6-Methoxy-pyridin-3-yl)-3-methyl-1-pyridin-3-yl-1,3-dihydro-imidazo[4,5-c]quinolin-2-one]: the IC50 stood at 377 nM.
